For four compounds, GI50 and TGI results are on record in PubChem BioAssay (NCI).

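Briefly, cells in 96-well plates were exposed to five compound concentrations for 48 h, and endpoints were estimated by linear interpolation. The concentration for 50% growth inhibition is given as GI50. TGI denotes the concentration required for complete inhibition of growth.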

Among the test systems are CCRF-CEM leukemia; EKVX NSCLC; LOX IMVI melanoma; M14 melanoma; MDA-MB-231 breast; MDA-MB-435; OVCAR-5 ovarian; OVCAR-8 ovarian; PC-3 prostate; SK-MEL-28 melanoma.
Holding throughout (experiment): NCI anticancer screen, dose series, 48 h

Take `CC1CN(S(=O)(=O)c2oc(-c3ccc(Cl)cc3)nc2C#N)CC(C)O1` (stereo not given): the GI50 is 0.505 µM with CCRF-CEM leukemia; 7.34 µM with EKVX NSCLC; 0.926 µM in the assay with LOX IMVI melanoma; 1.62 µM with M14 melanoma; 1.91 µM in the assay on MDA-MB-231 breast; 1.89 µM with MDA-MB-435. For the same compound, the GI50 in the assay with OVCAR-5 ovarian was 2.07 µM; in the assay with OVCAR-8 ovarian it was 3.19 µM; in the assay on PC-3 prostate, 1.97 µM; with SK-MEL-28 melanoma it was 1.81 µM. For the same compound, the TGI in the assay on CCRF-CEM leukemia worked out at 4.24 µM; with EKVX NSCLC, 27.9 µM; in the assay on LOX IMVI melanoma, 2.35 µM; in the assay with M14 melanoma, 3.39 µM; in the assay on MDA-MB-231 breast, 3.8 µM; in the assay on MDA-MB-435, 4.01 µM. In addition, the TGI with OVCAR-5 ovarian was 4.44 µM; with OVCAR-8 ovarian it was 21.2 µM; in the assay with PC-3 prostate it was 4.04 µM; in the assay with SK-MEL-28 melanoma it was 3.38 µM.

With `Cc1ncc(C(=O)Nc2ccc(CN3CCN(C)CC3)c(C(F)(F)F)c2)cc1C#Cc1ccc(N)nc1`, the GI50 with CCRF-CEM leukemia was 0.598 µM; in the assay on EKVX NSCLC it was 0.504 µM; with LOX IMVI melanoma it was 0.131 µM; in the assay with M14 melanoma, 0.126 µM; in the assay with MDA-MB-231 breast it was 0.158 µM; in the assay on MDA-MB-435 it was 0.155 µM. The GI50 in the assay on OVCAR-5 ovarian is 0.412 µM; with OVCAR-8 ovarian it was 0.489 µM; with PC-3 prostate it was 0.72 µM; with SK-MEL-28 melanoma it was 0.251 µM. The TGI in the assay with CCRF-CEM leukemia is 12.3 µM; in the assay with EKVX NSCLC, 3.85 µM; in the assay on LOX IMVI melanoma, 0.496 µM; in the assay with M14 melanoma, 0.797 µM; with MDA-MB-231 breast, 0.711 µM; in the assay on MDA-MB-435, 0.789 µM. Also, the TGI turned out to be 5.3 µM in the assay with OVCAR-5 ovarian, 5.03 µM with OVCAR-8 ovarian, 5.89 µM in the assay on PC-3 prostate and 1.3 µM in the assay with SK-MEL-28 melanoma.

For `O=c1cc(-c2ccc(O)cc2)oc2cc(O[C@@H]3O[C@H](CO)[C@@H](O)[C@H](O)[C@H]3O)cc(O)c12`, the TGI in the assay with CCRF-CEM leukemia, in the assay on EKVX NSCLC, in the assay on LOX IMVI melanoma, with M14 melanoma, in the assay on MDA-MB-231 breast and in the assay on MDA-MB-435 was more than 100 µM throughout. The TGI in the assay with OVCAR-5 ovarian, in the assay on OVCAR-8 ovarian, with PC-3 prostate and with SK-MEL-28 melanoma was more than 100 µM in each case.

As for `Cc1cc(Cl)ccc1OCC(=O)Nc1nc(N)nc(N)n1`, the TGI in the assay with CCRF-CEM leukemia, in the assay with EKVX NSCLC, with LOX IMVI melanoma, in the assay on M14 melanoma, in the assay with MDA-MB-231 breast and with MDA-MB-435 was more than 100 µM throughout. Besides, the TGI in the assay on OVCAR-5 ovarian, with OVCAR-8 ovarian, in the assay on PC-3 prostate and in the assay on SK-MEL-28 melanoma was more than 100 µM in each case.
